In one data set the test system is brain / BBB. Put plainly: In vivo brain uptake, fluorescence microscopy of rat brain. On the set-up: species or system male Wistar rats. The protocol: (§1) In vivo studies were performed in male Wistar rats housed under a 12 hours light-dark cycle with free access to food and water. The animals were allocated in five groups, each consisting of three rats. Three animal groups received a single i.v. administration of NBD-gH625 at a concentration of 10 µg, 20 µg, and 40 µg/100 g bw, respectively. Control group received vehicle while another group received gH-625 (40 µg/100 g bw). Both NBD-gH625 and gH625 were dissolved in phosphate-buffered saline. After 3.5 hours from the i.v. administration, the animals were anesthetized with Zoletil® (40 mg/100 g) and euthanized by decapitation. This study was carried out in strict accordance with recommendations in the European Guide for the Care and Use of Laboratory Animals. Every effort was made to minimize animal pain and suffering. All animal protocols were approved by the Committee on the Ethics of Animal Experiments of the University of Napoli Federico II (Italy) and the Italian Minister of Health. (Protocol number 2012/000180).
The ex-vivo fluorescence microscopy analysis was performed to evaluate the distribution of NBD-gH625 on both sides of the BBB. In order to evaluate if there is a linear relationship between slides fluorescence integrated density and the amount of the peptide, a calibration curve was obtained. In particular, increasing amounts of NBD-gH625 (0–30 µM) were spotted on microscope slides and images at 515 nm were acquired (See the Results section) and analysed as described below. Brains were removed from animals, sectioned sagittally in thick slices, washed in PBS, mounted on coverslips, stained with DAPI (4′–6 Diamidino-2-Phenylindole, Dilactate) (Invitrogen, Carlsbad, CA, USA) and analysed under Axioskop fluorescence microscope (Zeiss). Images, at least 10 field of view (800 × 700 μm each) for each experimental class, were acquired using an AxioCam MRc5 (Zeiss) with DAPI filter (λex 350 nm; λem 461 nm) and a fluorescein isothiocyanate filter (λex 488 nm; λem 515 nm).
To evaluate the distribution of NBD-gH625 on both sides of the BBB, we estimated the fluorescence inside the blood vessels (without discriminating between the amount present in the blood and that present in the endothelial cells) and outside the blood vessels in 10 images for each experimental class. In detail, to assess the NBD-gH625 that reached without crossing the BBB, we selected blood vessels as the region of interest (ROI) (inbound) and evaluated the fluorescence intensity; then, on the non-zero thresholded images, an inversion of selected ROI was carried out to obtain the complementary ROI to calculate the amounts of NBD-gH625 which crossed the BBB (outbound).
The morphology of blood vessels was easily identified and outlined; the images were calibrated by ImageJ Rodbard function; integrated density values were calculated within the outlines exclusively, to be considered as inside fluorescence. Then, the thresholded and outlined images, to exclude both blood vessels and background values, were used to calculate the integrated density as outside fluorescence.
(§2) To evaluate the effect of concentration on the systemic delivery of NBD-gH625, a fluorescence microscopy analysis was performed as previously reported.
Briefly, livers and brains were isolated and fixed for 24 hours in Bouin’s fixative (71% picric acid, 5% acetic acid, 24% formaldehyde) and embedded in paraffin wax (Carlo Erba, Milan, Italy). Tissue sections (10 μm of thickness) were incubated in 0.1% Sudan Black B dissolved in 70% ethanol for 20 minutes to reduce the tissues autofluorescence. The excess of Sudan Black B was removed by washing with Tris-buffered saline containing 0.02% Tween 20[30],[31]. Sections were stained with DAPI to counterstain nuclei, then mounted with a coverslip in glycerol/phosphate-buffered saline (1:1) and acquired using an AxioCam MRc5 with DAPI filter (λex 350 nm; λem 461 nm) and a fluorescein isothiocyanate filter (λex 488 nm; λem 515 nm). […]

The next data set deals with liver. Briefly: In vivo liver uptake, fluorescence microscopy of rat liver slices. On the set-up: species or system male Wistar rats. To be noted: single i.v. 10, 20, 40 µg/100 g bw, 3.5 hours. How it is done:
as §1, with “Every effort was made to minimize animal pain and suffering. All animal protocols were approved by the Committee on the Ethics of Animal Experiments of the University of Napoli Federico II (Italy) and the Italian Minister of Health. (Protocol number 2012/000180).” left out
as §2
Briefly, livers and brains were isolated and fixed for 24 hours in Bouin’s fixative (71% picric acid, 5% acetic acid, 24% formaldehyde) and embedded in paraffin wax (Carlo Erba, Milan, Italy). […] All images were then analysed using Fiji 1.50 software to determine the mean fluorescence and the integrated density, defined as the product of the mean fluorescence per the region of interest (μm^2)[32]. The percentage of delivered vs administered NBD-gH625 was calculated.

Where [1] appears, read: single i.v., 3.5 hours after administration, ex vivo brain slices, 515 nm.

Data on one compound can be found in paper PMC6138628, “Enhanced uptake of gH625 by blood brain barrier compared to liver in vivo: characterization of the mechanism by an in vitro model and implications for delivery” (Scientific Reports, 2018).

Starred links: 1 amine or outer side, 2 acyl side, 3 side chain; linkers in the order of their positions; H or OH if unused. Non-standard residues stand in square brackets, D forms with d. Residues, ends and D or L forms follow the SMILES beside them. X1 = O=C([C@H](Cc1c[nH]cn1)N(c1ccc([N+](=O)[O-])c2nonc12)[*:1])[*:2]

Turning to `CC[C@H](C)[C@H](NC(=O)[C@H](CC(C)C)NC(=O)[C@H](C)NC(=O)[C@H](CC(N)=O)NC(=O)[C@H](Cc1ccc(O)cc1)NC(=O)[C@H](Cc1c[nH]cn1)NC(=O)[C@H](C)NC(=O)[C@H](Cc1c[nH]c2ccccc12)NC(=O)[C@H](CCCNC(=N)N)NC(=O)[C@@H](NC(=O)[C@H](CC(C)C)NC(=O)[C@@H](NC(=O)[C@H](CO)NC(=O)[C@H](C)NC(=O)[C@H](CC(C)C)NC(=O)CNC(=O)[C@H](Cc1c[nH]cn1)Nc1ccc([N+](=O)[O-])c2nonc12)[C@@H](C)O)[C@@H](C)O)C(=O)N[C@@H](CCCNC(=N)N)C(=O)N[C@@H](C)C(=O)N[C@@H](Cc1ccccc1)C(N)=O` [NBD-gH625] (H-[X1]GLASTLTRWAHYNALIRAF-NH2), the “Integrated density of fluorescence on brain slices” value in the data set with brain / BBB (single i.v. 40 µg/100 g bw, 3.5 hours) is “comparable to the control”. The “Integrated density of fluorescence on brain slices, dependence on dose” value with brain / BBB (single i.v. 10, 20, 40 µg/100 g bw, 3.5 hours) was “lower peptide concentrations are able to improve the reaching of the brain more compared to higher concentrations”. Further, in the data set with brain / BBB (single i.v. 10, 20, 40 µg/100 g bw, 3.5 hours, integrated density calibrated with known amounts), the “Percentage of peptide delivered in brain vs administered, dependence on dose” value is “lower doses produced higher percentages of delivered peptide”. In the data set with brain / BBB (setting [1]), the “Peptide crossing the BBB (fluorescence outside blood vessels, brain parenchyma)” value is “crosses the BBB” and the “Peptide delivered to the BBB (fluorescence inside blood brain vessels, integrated density)” value is “reaches the BBB of treated animals”. Moreover, the “Integrated density of fluorescence on liver slices, dependence on dose” value with liver was “lowest dose of NBD-gH625 has higher effect”. Moreover, the “Percentage of peptide delivered in liver vs administered, dependence on dose” value in the data set on liver (integrated density calibrated with known amounts) is recorded as “lower doses produced higher percentages of delivered peptide”.
